Test results reported in US6599499B1, “Uses of diterpenoid triepoxides as an anti-proliferative agent” (priority 1999, dated 2003).
“Also recorded” adds a separate entry of the source.

Tests used:
[1] = system: Dx5 cells; assay: Cell survival of Bcl-2 or vector transfected Dx5 cells (X-gal staining); assay type: cell-based, human; conditions: PG490 20 ng/ml, 36 h
Experimental: Cells were cultured in the appropriate medium with 10% FCS supplemented with L-glutamine, penicillin and streptomycin. To examine the effect of Bcl-2 on cell survival, the Bcl-2 expression vector or the vector alone was co-transfected with a β galactosidase expression vector (Invitrogen, Carlsbad, Calif.) at a 5:1 ratio using lipofectamine plus (GIBCO BRL, Gaithersburg, Md.) into Dx5 cells. After 36 h cells were stained with 5-bromo4-chloro-3-indolyl □-D-galactopyranoside (X-gal). Cell survival was calculated as number of total cells-blue cells/total number of cells in a 90 mm^2 area from duplicate plates and expressed as the mean ±S.D.
Bcl-2 or vector control was transiently transfected into Dx5 cells followed by the addition of PG490 (20 ng/ml) and stained 36 h later with X-gal. % cell survival was calculated as total cells-blue cells/total cells×100. z-VAD.fmk (100 µM) was added to Dx5 cells 1 h prior to the addition of PG490 (20 ng/ml) and cells were harvested for analysis of cell viability 36 h later by annexin and propidium iodide staining followed by FACS analysis. Data represents the mean of three replicates from two independent experiments ±S.D.

[2] = system: Dx5 and H23 cells; assay: Growth arrest / cell cycle progression in Dx5 and H23 cells; assay type: cell-based, human
[3] = system: HT1080 cells; assay: Cell viability by trypan blue exclusion, HT1080 cells (Example 5)
Experimental: Cell Viability Assay. HT-1080 cells were seeded into 6-well plates at 2×10^5 per well the day before the treatment. For the inducible expression of exogenous p21 and LacZ, the stable transfectants were cultured in the presence of 5 μM ponasterone A for 16 h. […] The cells were untreated or treated with doxorubicin, triptolide, or the combination of both at indicated dosages for 8 h at 37° C. Subsequently, the medium was replaced with new media plus 5 μM ponasterone A. After 16 h incubation at 37° C., the number of viable cells within the same fields were determined by trypan blue exclusion with a 2% trypan blue solution.

[4] = system: p53 translation; assay: p53 translation by 35S methionine metabolic labeling of HT1080 cells; assay type: cell-based, human; conditions: HT1080, triptolide 20 ng/ml pretreatment 6 h
Experimental: Metabolic Labeling of HT1080 Cells. Cells were grown to 80% confluence followed by pretreatment with triptolide (20 ng/ml) for 6 h in the appropriate medium. Cells were washed twice with short term labeling medium (RPMI with 5% dialyzed fetal calf serum supplemented with L-glutamine, penicillin, and streptomycin). To deplete intracellular pools of methionine, short term labeling medium was added for 15 min at 37° C. and then replaced by short term labeling medium containing 0.1 mCi/ml [35S]methionine (Amersham Pharmacia Biotech). Cells were labeled for 30 min at 37° C. and washed with ice-cold PBS before harvesting for immunoprecipitation. The cells were lysed using RIPA buffer supplemented with protease inhibitors and immunoprecipitated using an agarose-conjugated p53 mAb (Ab-6, Oncogene Research Products) followed by 10% SDS-PAGE. The intensity of labeled p53 protein was measured by NIH Image 1.62.

[5] = system: p53; assay: p53 protein stability in the presence of cycloheximide; assay type: cell-based, human
Experimental: Immunoblot analysis using other antibodies was performed as described above. The band intensity was measured by NIH Image 1.62.
Immunoblotting. Cells were harvested at the conditions and times indicated and lysed using HNET buffer (50 mM HEPES, pH 7.5, 100 mM NaCl, 1 mM EGTA, and 1% Triton X-100) supplemented with 1 mM dithiothreitol, 1 mM phenylmethylsulfonyl fluoride, and protease inhibitors mixture (Roche Molecular Biochemicals). 100 μg of protein was loaded on 10% SDS-PAGE followed by transferring to polyvinylidene difluoride membrane. Immunoblotting was performed as described previously using a p53 mouse monoclonal antibody from Oncogene Research Products. […] Immunoblot analysis using other antibodies was performed as described above. The band intensity was measured by NIH Image 1.62.

[6] = system: p53; assay: p53 translocation into the nucleus, sub-cellular fractionation of MCF-7 cells; assay type: cell-based, human; conditions: MCF-7, triptolide 20 ng/ml
Experimental: Sub-cellular fractionation of MCF-7 cells. After treatment with triptolide (5 or 20 ng/ml) and/or doxorubicin (100 nM) cytosolic and nuclear extracts were prepared as previously described (Lee et al. (1988) Gene Anal Tech 5:22-31) and 50 μg of each extract was used in SDS/PAGE immunoblot analysis of p53.

[7] = system: DNA strand breaks
[8] = system: H23 tumor cells; assay: Nude mouse xenograft, prevention of H23 tumor formation; assay type: in vivo, nude mice
Experimental: Nude mouse xenograft model. […] Tumor cells were grown and harvested as described above.
PG490-88 prevents human tumor development in nude mice. The results reported above show cytotoxicity of PG490 on tumor cells in vitro. To extend these studies to an in vivo setting using human tumor cell xenografts, PG490-88 was used, a more easily administered, water soluble prodrug of PG490. H23 tumor cells were implanted intradermally in nude mice and the animals were left untreated or were injected IP daily with PG490-88 starting at the time of implantation. Tumors arose in 5/5 of the untreated mice but no tumors were observed after 5 or 7 weeks of dosing with PG490-88 at doses ranging from 0.25 to 0.75 mg/kg/day (Table 1). PG490-88 treatment was stopped after week 5 in 3 mice per group and was continued for an additional 2 weeks in 2 mice per group. A visible tumor arose during the sixth week in one animal in each group in which PG490-88 dosed at 0.5 mg/kg/day or less was stopped but no more visible tumors appeared in these groups after week 6 (Table 1).
Nude mice were implanted with H23 tumor cells (day 0). Mice were left untreated, or were injected IP with PG490-88 daily from the day of tumor cell implantation for 5 consecutive days per week. PG490-88 was administered for 5 weeks. The untreated group consisted of 5 mice. Three mice in each of the treatment groups received PG490-88 for 5 weeks, and 2 mice in each of these groups were given PG490-88 for 2 additional weeks (7 weeks total). The tumor appeared only in mice in which treatment had been stopped after 5 weeks.

## CC(C)[C@]12O[C@H]1[C@@H]1O[C@]13[C@]1(O[C@H]1C[C@H]1C4=C(CC[C@@]13C)C(=O)OC4)[C@@H]2O [PG490, triptolide]
[1]; overexpression of Bcl-2
  cell survival: 72%
[1]; vector control
  cell survival: 15%
[2]
  growth arrest / cell cycle progression: did not cause growth arrest or significantly affect cell cycle progression
[3]; A549 and HT1080 cells
  effect on cell death by carboplatinum: enhanced cell death
[3]; Homo sapiens, HT-1080, 24 h, read-out: reduction of HT1080 cell viability
  cytotoxicity at 0.02 µg/mL: 84%
[4]
  increase in p53 translation: 4.9 fold
[5]; HT1080, triptolide 20 ng/ml 0.5 h prior to cycloheximide 30 μg/ml
  p53 stability versus untreated cells: no difference from untreated cells at 60 min
[5]; MCF-7, triptolide 0.5 h prior to cycloheximide 30 μg/ml
  p53 stability versus untreated cells: no difference from untreated cells at 60 min
[6]
  localisation of the majority of p53: translocated into nuclei
[7]
  DNA strand breaks: does not induce DNA strand breaks

## CC(C)[C@]12O[C@H]1[C@@H]1O[C@]13[C@]1(O[C@H]1C[C@H]1C4=C(CC[C@@]13C)C(=O)OC4)[C@@H]2OC(=O)CCC(=O)[O-].[Na+] [PG490-88, 14-succinyl triptolide sodium salt]
[8]; PG490-88 0.25 mg/kg/day IP, Week 5
  Number of mice in group with a tumor: 0/5
[8]; PG490-88 0.25 mg/kg/day IP, Week 6
  Number of mice in group with a tumor: 1/5
[8]; PG490-88 0.25 mg/kg/day IP, Week 10
  Number of mice in group with a tumor: 1/5
[8]; PG490-88 0.375 mg/kg/day IP, Week 5
  Number of mice in group with a tumor: 0/5
[8]; PG490-88 0.375 mg/kg/day IP, Week 6
  Number of mice in group with a tumor: 1/5
[8]; PG490-88 0.375 mg/kg/day IP, Week 10
  Number of mice in group with a tumor: 1/5
[8]; PG490-88 0.5 mg/kg/day IP, Week 5
  Number of mice in group with a tumor: 0/5
[8]; PG490-88 0.5 mg/kg/day IP, Week 6
  Number of mice in group with a tumor: 1/5
[8]; PG490-88 0.5 mg/kg/day IP, Week 10
  Number of mice in group with a tumor: 1/5
[8]; PG490-88 0.75 mg/kg/day IP, Week 5
  Number of mice in group with a tumor: 0/5
[8]; PG490-88 0.75 mg/kg/day IP, Week 6
  Number of mice in group with a tumor: 0/5
[8]; PG490-88 0.75 mg/kg/day IP, Week 10
  Number of mice in group with a tumor: 0/5
[8]; PG490-88 0.75 mg/kg/day, 10 weeks of observation, sodium salt, 0.75 mg/kg/day
  H23 tumor formation: No visible tumors developed in any of the mice; also recorded: completely prevented
